Structures can show the parent of a compound that is named as a salt.
Tests used:
[1] = test system: AML cell lines (MOLM13, MV4-11, THP1, HL-60, and OCI-AML3)
Description: MTS assay for cell growth/viability: Mitochondrial activity was measured to determine cell proliferation using an MTS assay (tetrazolium dye 3′[4,5-dimethylthiazol-2-yl]-2,5-diphenyl-tetrazolium bromide). Metabolically active cells convert MTS tetrazolium salt into a purple formazan product that is soluble in tissue culture medium. The amount of formazan measured at 490 nm absorbance is proportional to the number of proliferating cells. […] Triplicate wells were set up for each condition. At 96 hours, the MTS reagent was added and after approximately 4 hours the plates were read in a spectrophotometer. MTS assays in primary AML cells were done in a similar manner as the cell lines with the following changes: 100K cells were plated per well, and the MTS was done in the presence of an HS5 stromal cell line to support the in vitro growth of the primary cells. Primary cells were incubated with MTS for approximately 8-12 hours (varies with the samples) before reading the absorbance.
Cell proliferation assays were carried out using the MTS assay described herein using five AML cell lines (i.e., MOLM13, MV4-11, THP1, HL-60, and OCI-AML3) with varied genetic backgrounds. The assays were carried out in a blinded fashion.

[2] = test system: IDH2-R140Q/Flt3-ITD spleen cells (murine AML); experiment: IDH2-R140Q/Flt3-ITD adoptive transfer model; format: in vivo, NCG mice; settings: daily oral gavage; Cpd3 50 mg/kg, enasidenib 100 mg/kg
Text: Leukemic cells derived from a spontaneous murine model of Idh2/Flt3 AML, as reported by Shih et al (Cancer Discov. 7(5):494-505), were engrafted via adoptive transfer to generate an aggressive model of AML suitable for testing of therapeutic agents. Briefly, 6-8 week old mice harboring a heterozygous internal tandem duplication of FMS-like tyrosine kinase 3 (Flt3-ITD), a heterozygous point mutation of isocitrate dehydrogenase 2 (Idh2-R140Q) preceeded by a loxP flanked STOP codon, and Cre recombinase under the MX dynamin like GTPase 1 (Mx1) promoter were injected i.p. with polyinosinic:polycytidylic acid (poly(I:C)), activating Cre recombinase and inducing hematopoietic-specific expression of the Idh2-R140Q mutation. Spleen cells from these mice were collected after the development of lethal AML (defined by study removal criteria), typically 8-14 months post-poly(I:C) injection. 1×10^5 spleen cells from a single leukemic donor were engrafted by tail vein injection into 6 week old immune deficient NOD-Prkdc^em26Cd52//2rg^em26Cd22/NjuCrl mice (NCG; Charles River). At one week post-engraftment, animals were randomized to vehicle (5% EtOH, 10% Kolliphor EL, in PBS), enasidenib (100 mg/kg), and HOSU-3 (50 mg/kg) treatment arms and dosed by daily oral gavage. Personnel responsible for animal monitoring, dosing, and decisions regarding euthanasia were blinded to treatment arms. Survival was assessed using Kaplan-Meier analysis and p-values were determined using the log-rank test and adjusted using Holm's method.

SMILES	cytotoxicity compared to the free acid form and brequinar [1]	Median survival [2]
CCOc1ccc(-c2ccc(-c3cc(C(=O)O)c4cc(F)ccc4n3)cc2)cc1 [sodium salt form of Cpd3, Sodium 2-(4′-Ethoxy-[1,1′-biphenyl]-4-yl)-6-fluoroquinoline-4-carboxylate]	equally cytotoxic against AML cell lines	
CC(C)(O)CNc1nc(Nc2ccnc(C(F)(F)F)c2)nc(-c2cccc(C(F)(F)F)n2)n1 [Enasidenib, reference compound]		34 days

From patent publication US11999697B2, “Methods and compositions for inhibition of dihydroorotate dehydrogenase” (OHIO STATE INNOVATION FOUNDATION, priority 2018, dated 2024)
